We go through one compound from ChEMBL document CHEMBL4346710, “Discovery of 7H-pyrrolo[2,3-d]pyrimidine derivatives as selective covalent irreversible inhibitors of interleukin-2-inducible T-cell kinase (Itk)” (Eur J Med Chem, 2019).

Active and inactive are the calls of the source. The calls are words filed in the database; no cut-off is given here.

In assay [1] the target is cAMP-dependent protein kinase catalytic subunit alpha (Homo sapiens) (UniProt P17612). Put plainly: Inhibition of recombinant human His-tagged PRKACA catalytic domain (1 to 351 residues) expressed in Escherichia coli assessed as enzyme residual activity at 0.4 uM using fluorophore-labeled serine/threonine-1 peptide as substrate incubated for 60 mins by Z'-LYTE assay relative to control.

Assay [2] deals with Protein kinase C theta type (Homo sapiens) (UniProt Q04759). Put plainly: Inhibition of recombinant full length human His-tagged PRKCQ expressed in baculovirus expression system assessed as enzyme residual activity at 0.4 uM using fluorophore-labeled serine/threonine-7 peptide as substrate incubated for 60 mins by Z'-LYTE assay relative to control.
Assay [3] addresses Mitogen-activated protein kinase 3 (Homo sapiens) (UniProt P27361). The experiment in a line: Inhibition of recombinant full length human GST-tagged ERK1 expressed in Escherichia coli assessed as enzyme residual activity at 0.4 uM using fluorophore-labeled serine/threonine-3 peptide as substrate incubated for 60 mins by Z'-LYTE assay relative to control.
The target in the next assay is TAK1/TAB1 (Homo sapiens, UniProt O43318). Put plainly: Inhibition of tracer 222 binding to recombinant full-length human His-tagged MAP3K7/MAP3K7IP1 (437 to 504 residues) expressed in baculovirus expression system by Lanthascreen assay.
Assay [4] deals with Hepatocyte growth factor receptor (Homo sapiens) (UniProt P08581). The experiment in a line: Inhibition of recombinant human N-terminal His-tagged cMET cytoplasmic domain (956 to 1390 residues) expressed in baculovirus expression system assessed as enzyme residual activity at 0.4 uM using fluorophore-labeled tyrosine 6 peptide as substrate incubated for 60 mins by Z'-LYTE assay relative to control.
Hepatocyte growth factor receptor (Homo sapiens), sequence (P08581 whole entry, the tested form may be a part): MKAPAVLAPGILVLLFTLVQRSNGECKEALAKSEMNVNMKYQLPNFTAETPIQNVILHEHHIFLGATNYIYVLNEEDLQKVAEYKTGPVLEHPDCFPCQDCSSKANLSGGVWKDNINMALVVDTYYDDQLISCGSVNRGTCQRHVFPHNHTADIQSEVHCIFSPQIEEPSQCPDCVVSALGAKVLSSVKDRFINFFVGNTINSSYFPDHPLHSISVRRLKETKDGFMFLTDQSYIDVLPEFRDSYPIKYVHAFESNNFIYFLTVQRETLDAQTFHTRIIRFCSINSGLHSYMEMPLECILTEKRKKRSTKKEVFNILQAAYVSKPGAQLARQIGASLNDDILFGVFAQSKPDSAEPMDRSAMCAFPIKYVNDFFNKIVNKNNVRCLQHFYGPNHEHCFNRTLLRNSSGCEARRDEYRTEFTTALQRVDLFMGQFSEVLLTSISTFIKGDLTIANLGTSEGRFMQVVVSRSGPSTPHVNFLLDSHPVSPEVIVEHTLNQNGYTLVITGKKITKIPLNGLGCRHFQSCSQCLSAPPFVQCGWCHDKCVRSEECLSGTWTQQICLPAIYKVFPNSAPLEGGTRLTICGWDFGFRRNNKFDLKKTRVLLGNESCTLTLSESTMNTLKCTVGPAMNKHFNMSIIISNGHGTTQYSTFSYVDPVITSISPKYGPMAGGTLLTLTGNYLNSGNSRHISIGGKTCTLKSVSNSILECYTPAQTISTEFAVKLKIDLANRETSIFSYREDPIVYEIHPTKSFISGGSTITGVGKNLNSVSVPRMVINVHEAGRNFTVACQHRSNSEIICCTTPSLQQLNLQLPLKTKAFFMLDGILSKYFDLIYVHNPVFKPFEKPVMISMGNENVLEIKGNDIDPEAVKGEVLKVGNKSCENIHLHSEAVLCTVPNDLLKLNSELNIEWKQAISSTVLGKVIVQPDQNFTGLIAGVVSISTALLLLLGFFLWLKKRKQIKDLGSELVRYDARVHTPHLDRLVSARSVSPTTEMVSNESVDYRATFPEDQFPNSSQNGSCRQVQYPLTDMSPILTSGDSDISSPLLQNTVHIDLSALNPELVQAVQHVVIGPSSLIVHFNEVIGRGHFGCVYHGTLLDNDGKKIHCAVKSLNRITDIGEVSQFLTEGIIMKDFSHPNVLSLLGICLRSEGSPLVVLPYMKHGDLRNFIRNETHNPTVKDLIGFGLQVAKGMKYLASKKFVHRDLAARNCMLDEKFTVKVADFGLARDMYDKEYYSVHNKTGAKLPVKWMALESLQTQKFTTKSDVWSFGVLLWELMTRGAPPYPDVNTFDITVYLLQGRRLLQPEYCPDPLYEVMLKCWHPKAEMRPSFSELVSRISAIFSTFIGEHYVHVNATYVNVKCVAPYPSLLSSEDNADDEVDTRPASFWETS

For assay [5], the target named is Aurora kinase B (Homo sapiens) (UniProt Q96GD4). Put plainly: Inhibition of recombinant full length human His-tagged Aurora B expressed in baculovirus expression system assessed as enzyme residual activity at 0.4 uM using fluorophore-labeled serine/threonine-1 peptide as substrate incubated for 60 mins by Z'-LYTE assay relative to control.
Aurora kinase B (Homo sapiens), sequence (Q96GD4 whole entry): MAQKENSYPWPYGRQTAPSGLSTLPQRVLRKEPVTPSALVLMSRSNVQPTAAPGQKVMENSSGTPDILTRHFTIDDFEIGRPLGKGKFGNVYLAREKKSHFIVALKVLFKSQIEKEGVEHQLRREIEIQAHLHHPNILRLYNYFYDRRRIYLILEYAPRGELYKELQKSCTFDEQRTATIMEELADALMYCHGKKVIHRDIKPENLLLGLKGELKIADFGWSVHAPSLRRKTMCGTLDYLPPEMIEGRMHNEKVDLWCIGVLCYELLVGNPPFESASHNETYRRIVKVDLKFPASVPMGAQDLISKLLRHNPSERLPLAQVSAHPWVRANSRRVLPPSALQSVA
The target of assay [6] is Tyrosine-protein kinase BTK (Homo sapiens, UniProt Q06187). Put plainly: Inhibition of BTK in human Ramos cells assessed as reduction in […] PLCgamma2 phosphorylation at 10 to 3000 nM preincubated for 2 hrs followed by […] addition and measured after 30 min by Western blot analysis. It is filed as cell-based.
In assay [7] the test system is Jurkat. Put plainly: Induction of apoptosis in human Jurkat cells assessed as downregulation of PARP at 1 to 20 uM incubated for 24 hrs by Western blot analysis. It is filed as functional, cell-based.
Another assay concerns the target TAK1/TAB1 (Homo sapiens) (UniProt Q15750+O43318). Put plainly: Inhibition of tracer 222 binding to recombinant full-length human His-tagged MAP3K7/MAP3K7IP1 (437 to 504 residues) expressed in baculovirus expression system assessed as enzyme residual activity at 0.4 uM incubated for 60 mins by Lanthascreen assay relative to control.
Another assay has as its system H9. The experiment in a line: Growth inhibition of human H9 cells incubated for 72 hrs by CellTiter-Glo luminescent cell viability assay. It is filed as functional. The following applies: H9, 72 h.
The target of assay [8] is Epidermal growth factor receptor (Homo sapiens, UniProt P00533). The experiment in a line: Inhibition of recombinant human N-terminal GST-tagged EGFR kinase domain (696 to end residues) expressed in baculovirus infected Sf21 insect cells using STK as substrate by HTRF assay.
Epidermal growth factor receptor, sequence (P00533 whole entry, the tested form may be a part): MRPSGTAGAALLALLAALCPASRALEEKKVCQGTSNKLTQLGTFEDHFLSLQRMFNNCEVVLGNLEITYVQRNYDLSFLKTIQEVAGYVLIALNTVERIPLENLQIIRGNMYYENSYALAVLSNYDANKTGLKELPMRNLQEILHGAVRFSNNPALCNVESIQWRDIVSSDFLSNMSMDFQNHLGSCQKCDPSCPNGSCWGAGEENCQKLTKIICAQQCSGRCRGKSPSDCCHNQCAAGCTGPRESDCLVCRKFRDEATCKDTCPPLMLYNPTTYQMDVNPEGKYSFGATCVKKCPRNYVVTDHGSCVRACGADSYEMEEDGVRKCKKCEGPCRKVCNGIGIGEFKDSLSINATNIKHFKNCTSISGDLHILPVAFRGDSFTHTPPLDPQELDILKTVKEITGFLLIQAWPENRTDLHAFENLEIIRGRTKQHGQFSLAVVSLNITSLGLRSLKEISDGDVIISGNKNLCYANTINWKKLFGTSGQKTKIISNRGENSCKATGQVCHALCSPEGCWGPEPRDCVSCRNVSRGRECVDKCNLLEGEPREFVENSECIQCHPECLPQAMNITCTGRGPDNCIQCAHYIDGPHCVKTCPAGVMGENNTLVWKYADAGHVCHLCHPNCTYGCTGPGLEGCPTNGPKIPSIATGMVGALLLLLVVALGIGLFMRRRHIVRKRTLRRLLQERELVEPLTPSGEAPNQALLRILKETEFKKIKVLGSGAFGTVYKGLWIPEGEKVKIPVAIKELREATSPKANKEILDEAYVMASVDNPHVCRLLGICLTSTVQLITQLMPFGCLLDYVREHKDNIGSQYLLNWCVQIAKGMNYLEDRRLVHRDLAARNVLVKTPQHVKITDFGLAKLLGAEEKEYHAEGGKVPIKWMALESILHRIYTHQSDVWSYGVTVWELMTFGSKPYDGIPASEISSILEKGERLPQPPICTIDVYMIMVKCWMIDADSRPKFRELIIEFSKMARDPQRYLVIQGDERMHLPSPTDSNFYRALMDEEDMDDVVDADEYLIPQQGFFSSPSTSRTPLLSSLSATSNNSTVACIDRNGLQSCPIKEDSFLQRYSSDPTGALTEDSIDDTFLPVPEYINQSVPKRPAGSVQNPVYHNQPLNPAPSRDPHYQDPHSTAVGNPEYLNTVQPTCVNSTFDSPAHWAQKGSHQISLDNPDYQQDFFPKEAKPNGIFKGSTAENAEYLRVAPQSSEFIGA
In assay [9] the target is T1, Tyrosine-protein kinase ITK/TSK (Homo sapiens) (UniProt Q08881).
T1 sequence (whole entry): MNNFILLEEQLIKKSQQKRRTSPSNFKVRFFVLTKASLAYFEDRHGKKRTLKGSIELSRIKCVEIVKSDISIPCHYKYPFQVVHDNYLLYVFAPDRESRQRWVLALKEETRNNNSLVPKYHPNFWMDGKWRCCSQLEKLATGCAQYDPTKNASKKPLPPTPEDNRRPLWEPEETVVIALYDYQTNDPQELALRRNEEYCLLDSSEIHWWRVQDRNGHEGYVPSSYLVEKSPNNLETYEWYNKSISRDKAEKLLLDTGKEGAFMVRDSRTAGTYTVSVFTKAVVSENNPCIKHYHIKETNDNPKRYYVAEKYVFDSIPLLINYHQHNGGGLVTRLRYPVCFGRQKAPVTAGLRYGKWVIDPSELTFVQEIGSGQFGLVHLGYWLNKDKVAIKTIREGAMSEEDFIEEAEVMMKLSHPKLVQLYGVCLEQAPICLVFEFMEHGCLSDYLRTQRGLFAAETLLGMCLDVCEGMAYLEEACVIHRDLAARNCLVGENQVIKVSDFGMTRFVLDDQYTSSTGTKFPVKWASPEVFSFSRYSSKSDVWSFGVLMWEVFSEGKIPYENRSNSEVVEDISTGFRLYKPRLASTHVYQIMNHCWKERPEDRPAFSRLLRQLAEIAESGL
Put plainly: Inhibition of recombinant human N-terminal His6-tagged ITK (352 to 617 residues) expressed in baculovirus infected Sf21 insect cells assessed as inactivation rate constant using STK substrate by HTRF assay.

In assay [10] the target is Tyrosine-protein kinase ABL1 (Homo sapiens) (UniProt P00519). Put plainly: Inhibition of recombinant full length human His-tagged ABL1 cytoplasmic domain expressed in baculovirus expression system assessed as enzyme residual activity at 0.4 uM using fluorophore-labeled tyrosine-2 peptide as substrate incubated for 60 mins by Z'-LYTE assay relative to control.
Tyrosine-protein kinase ABL1 (Homo sapiens), sequence (P00519 whole entry, the tested form may be a part): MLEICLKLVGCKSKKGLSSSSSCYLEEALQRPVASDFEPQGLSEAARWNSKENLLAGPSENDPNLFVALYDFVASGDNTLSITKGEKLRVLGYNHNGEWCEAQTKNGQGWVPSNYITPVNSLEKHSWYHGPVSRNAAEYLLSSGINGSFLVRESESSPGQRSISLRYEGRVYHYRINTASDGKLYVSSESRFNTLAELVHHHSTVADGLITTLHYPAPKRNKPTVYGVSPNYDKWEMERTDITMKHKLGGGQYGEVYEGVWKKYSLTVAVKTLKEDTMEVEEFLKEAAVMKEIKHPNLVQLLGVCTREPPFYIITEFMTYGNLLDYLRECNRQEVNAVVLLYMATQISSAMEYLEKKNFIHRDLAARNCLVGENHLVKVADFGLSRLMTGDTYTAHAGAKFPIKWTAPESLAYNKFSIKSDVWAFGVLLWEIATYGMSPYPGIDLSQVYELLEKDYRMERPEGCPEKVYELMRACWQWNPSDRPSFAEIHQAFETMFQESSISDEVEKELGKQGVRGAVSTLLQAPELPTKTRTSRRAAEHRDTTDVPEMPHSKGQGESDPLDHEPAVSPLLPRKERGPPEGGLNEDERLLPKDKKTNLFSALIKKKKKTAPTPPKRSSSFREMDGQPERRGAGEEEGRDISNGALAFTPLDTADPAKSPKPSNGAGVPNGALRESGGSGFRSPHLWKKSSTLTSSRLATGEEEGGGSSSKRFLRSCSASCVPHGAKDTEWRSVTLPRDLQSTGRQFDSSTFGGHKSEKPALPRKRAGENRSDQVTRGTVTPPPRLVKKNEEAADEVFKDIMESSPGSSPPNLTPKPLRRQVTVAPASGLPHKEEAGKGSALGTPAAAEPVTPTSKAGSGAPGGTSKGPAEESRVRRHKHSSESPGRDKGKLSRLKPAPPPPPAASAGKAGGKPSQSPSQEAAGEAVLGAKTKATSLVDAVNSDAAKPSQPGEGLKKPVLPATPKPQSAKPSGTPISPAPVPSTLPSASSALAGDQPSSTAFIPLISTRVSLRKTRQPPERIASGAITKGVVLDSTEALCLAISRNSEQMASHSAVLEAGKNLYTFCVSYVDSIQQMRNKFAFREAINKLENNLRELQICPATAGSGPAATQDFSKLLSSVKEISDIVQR
Assay [11] addresses T2, Tyrosine-protein kinase ITK/TSK (Homo sapiens, UniProt Q08881).
T2 sequence (Q08881 whole entry): T1 sequence (whole entry)
Put plainly: Inhibition of recombinant human N-terminal His6-tagged ITK (352 to 617 residues) expressed in baculovirus infected Sf21 insect cells using STK substrate by HTRF assay.

The target in assay [12] is T1, Tyrosine-protein kinase ITK/TSK (Homo sapiens). Put plainly: Inhibition of recombinant full-length human GST-tagged ITK cytoplasmic domain expressed in baculovirus expression system assessed as enzyme residual activity at 0.4 uM using fluorophore-labeled tyrosine-1 peptide as substrate incubated for 60 mins by Z'-LYTE assay relative to control.
Assay [13] has as its system Jurkat. The experiment in a line: Growth inhibition of human Jurkat cells incubated for 72 hrs by CellTiter-Glo luminescent cell viability assay. Format: functional.
Assay [14] addresses Tyrosine-protein kinase Lck (Homo sapiens, UniProt P06239). The experiment in a line: Inhibition of recombinant full length human C-terminal His-tagged LCK cytoplasmic domain expressed in baculovirus expression system assessed as enzyme residual activity at 0.4 uM using fluorophore-labeled tyrosine-2 peptide as substrate incubated for 60 mins by Z'-LYTE assay relative to control.

For assay [15], the target named is Tyrosine-protein kinase ZAP-70 (Homo sapiens) (UniProt P43403). The experiment in a line: Inhibition of recombinant full length human His-tagged ZAP70 cytoplasmic domain expressed in baculovirus expression system assessed as enzyme residual activity at 0.4 uM using fluorophore-labeled tyrosine-07 peptide as substrate incubated for 60 mins by Z'-LYTE assay relative to control.

Assay [16] concerns the target Calcium/calmodulin-dependent protein kinase type IV (Homo sapiens) (UniProt Q16566). Put plainly: Inhibition of recombinant human full length GST-tagged CAMK4 expressed in Escherichia coli expression system assessed as enzyme residual activity at 0.4 uM using fluorophore-labeled serine/threonine-13 peptide as substrate incubated for 60 mins by Z'-LYTE assay relative to control.

The test system of the next assay is MOLT-4. Put plainly: Induction of apoptosis in human MOLT4 cells assessed as downregulation of caspase3 at 1 to 20 uM incubated for 24 hrs by Western blot analysis. Format: functional, cell-based.

Mitogen-activated protein kinase 3 (Homo sapiens), sequence (P27361 whole entry, the tested form may be a part): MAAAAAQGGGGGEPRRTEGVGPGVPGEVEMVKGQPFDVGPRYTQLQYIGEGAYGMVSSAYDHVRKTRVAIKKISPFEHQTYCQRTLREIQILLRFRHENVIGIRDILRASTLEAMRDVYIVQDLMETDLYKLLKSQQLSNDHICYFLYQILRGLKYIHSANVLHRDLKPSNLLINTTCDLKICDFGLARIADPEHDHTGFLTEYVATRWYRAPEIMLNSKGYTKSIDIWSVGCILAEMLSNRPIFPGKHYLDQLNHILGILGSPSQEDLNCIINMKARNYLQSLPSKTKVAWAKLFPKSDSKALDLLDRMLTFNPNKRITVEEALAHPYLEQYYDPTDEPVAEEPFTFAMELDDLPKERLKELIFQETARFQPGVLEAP
Tyrosine-protein kinase Lck, sequence (P06239 2-509 limits assumed): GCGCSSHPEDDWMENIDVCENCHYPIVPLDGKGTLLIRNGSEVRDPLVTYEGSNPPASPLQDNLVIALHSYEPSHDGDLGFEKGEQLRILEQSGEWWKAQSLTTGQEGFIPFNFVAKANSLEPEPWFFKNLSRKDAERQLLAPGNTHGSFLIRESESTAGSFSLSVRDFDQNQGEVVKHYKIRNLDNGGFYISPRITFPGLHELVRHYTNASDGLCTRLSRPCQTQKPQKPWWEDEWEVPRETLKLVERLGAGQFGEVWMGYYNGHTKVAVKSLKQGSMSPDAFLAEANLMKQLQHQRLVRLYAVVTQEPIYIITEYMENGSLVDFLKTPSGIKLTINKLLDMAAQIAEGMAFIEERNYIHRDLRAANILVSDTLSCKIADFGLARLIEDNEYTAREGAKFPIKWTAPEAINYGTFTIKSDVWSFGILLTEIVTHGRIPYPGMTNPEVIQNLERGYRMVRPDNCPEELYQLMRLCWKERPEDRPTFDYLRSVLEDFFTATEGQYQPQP

Regarding `C=CC(=O)N1CCC(Oc2nc(Nc3ccc(N4CCOCC4)cc3)nc3[nH]cc(-c4cncc(NC)n4)c23)CC1`, the Activity in assay [1] is 86%; in assay [2], 89%; in [3], 98.7%; in assay [4], 79%; in [5], 36%; on TAK1/TAB1 (Homo sapiens), 0%. Further, the Activity in assay [10] is 11.7%; in assay [12], 1%; in assay [14], 9%; in assay [15], 95%; in [16], 107%. Moreover, the values for the IC50 (on TAK1/TAB1; in [8]; in assay [11]) were 54 nM, 1260 nM and 3.7 nM, respectively. Also, the inhibition entry in assay [6] was “inactive”. Further, the result in the assay on Jurkat [7] and in the assay with MOLT-4 was Active. Further, the GI50 with H9 was 232 nM; in the assay with Jurkat [13], 184 nM. In addition, the K in assay [9] is 0.038 min⁻¹. Besides, the Ki in assay [11] is 6.3 nM.
